Measured values reported in patent US10167284B2, “Spirocyclic compounds as agonists of the muscarinic M1 receptor and/or M4 receptor” (HEPTARES THERAPEUTICS LIMITED, priority 2015, dated 2019).

Experiments:
[1] = tested on: d-amphetamine induced hyperactivity in rats; test: d-Amphetamine-induced hyperactivity in rats; format: in vivo; details: positive control dose, previously observed
Experimental: Effect of a Novel Test Compound and Xanomeline on d-Amphetamine-Induced Hyperactivity in Rats
The aim of the study is to examine the effect of a novel test compound on d-amphetamine induced hyperactivity in rats. Schizophrenia is a complex multifactorial disease that cannot be fully represented by a single experimental procedure. Antipsychotic-like behaviour was assessed in rats by the inhibition of hyperactivity (or hyperlocomotion) elicited by d-amphetamine. This procedure is sensitive to clinically relevant dopamine receptor antagonists and is therefore considered suitable for comparing muscarinic agonists that influence dopaminergic signalling. […] Statistical analysis typically involved three-way analysis of covariance or robust regression with treatment, day and rack as factors and activity during the 30 minutes prior to treatment as a covariate, followed by appropriate multiple comparison tests. A P value of <0.05 was considered statistically significant and is marked accordingly in all subsequent figures.

[2] = biological target: T1, human muscarinic M4 receptor (Homo sapiens, UniProt P08173); test: Alphascreen Surefire phospho-ERK1/2 functional assay, M4; format: cell-based; details: for EC50 / M4 % Emax cf. ACh: CHO cells stably expressing human M4; for EC50: phospho-ERK1/2, read-out: pEC50 M4 (converted); for Emax: CHO, read-out: M4 % Emax cf. ACh, CHO cells stably expressing human M4; for Emax / M4 % Emax cf. ACh: Emax relative to ACh
T1 construct: expressed in transfected cells
T1 sequence (P08173 1-479): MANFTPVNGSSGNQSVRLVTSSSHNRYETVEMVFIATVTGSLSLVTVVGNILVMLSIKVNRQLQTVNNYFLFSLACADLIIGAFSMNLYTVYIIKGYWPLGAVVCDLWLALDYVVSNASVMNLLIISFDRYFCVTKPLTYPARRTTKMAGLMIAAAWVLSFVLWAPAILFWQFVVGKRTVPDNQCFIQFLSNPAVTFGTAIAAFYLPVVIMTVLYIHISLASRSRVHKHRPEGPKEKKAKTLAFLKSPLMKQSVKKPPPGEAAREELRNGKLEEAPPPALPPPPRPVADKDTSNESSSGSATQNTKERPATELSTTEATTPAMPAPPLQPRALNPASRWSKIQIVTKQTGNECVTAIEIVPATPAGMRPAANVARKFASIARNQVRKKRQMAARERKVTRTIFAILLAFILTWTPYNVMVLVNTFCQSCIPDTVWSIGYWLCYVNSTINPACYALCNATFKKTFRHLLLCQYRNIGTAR
Experimental: (§1) CHO cells stably expressing the human muscarinic M1, M2, M3 or M4 receptor were plated (25K/well) onto 96-well tissue culture plates in MEM-alpha+10% dialysed FBS. Once adhered, cells were serum-starved overnight. Agonist stimulation was performed by the addition of 5 μL agonist to the cells for 5 min (37° C.). Media was removed and 50 μL of lysis buffer added. After 15 min, a 4 μL sample was transferred to 384-well plate and 7 μL of detection mixture added. Plates were incubated for 2 h with gentle agitation in the dark and then read on a PHERAstar plate reader.
(§2) pEC50 and Emax figures were calculated from the resulting data for each receptor subtype.

[3] = biological target: T2, human muscarinic M2 receptor (Homo sapiens, UniProt P08172); test: Alphascreen Surefire phospho-ERK1/2 functional assay, M2; details: for Emax: CHO, read-out: M2 % Emax cf. ACh, CHO cells stably expressing human M2; for Emax / M2 % Emax cf. ACh: Emax relative to ACh; for EC50: pEC50 M2, CHO cells stably expressing human M2, phospho-ERK1/2; for M2 % Emax cf. ACh: CHO cells stably expressing human M2
T2 sequence (P08172 1-466): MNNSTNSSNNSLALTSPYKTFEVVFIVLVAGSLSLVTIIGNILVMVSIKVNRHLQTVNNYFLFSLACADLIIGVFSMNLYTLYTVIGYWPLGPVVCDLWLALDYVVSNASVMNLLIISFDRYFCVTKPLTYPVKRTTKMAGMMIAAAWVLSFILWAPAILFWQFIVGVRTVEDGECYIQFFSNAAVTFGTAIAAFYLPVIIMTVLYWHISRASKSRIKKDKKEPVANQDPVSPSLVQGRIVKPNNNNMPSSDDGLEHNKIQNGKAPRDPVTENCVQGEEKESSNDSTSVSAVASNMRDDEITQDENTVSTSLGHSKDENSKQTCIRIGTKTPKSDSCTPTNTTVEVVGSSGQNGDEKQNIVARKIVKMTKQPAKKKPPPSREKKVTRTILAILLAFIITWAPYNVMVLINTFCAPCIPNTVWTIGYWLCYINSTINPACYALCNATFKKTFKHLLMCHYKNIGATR
Experimental: as §1, §2

[4] = biological target: T3, human muscarinic M1 receptor (Homo sapiens, UniProt P11229); test: Alphascreen Surefire phospho-ERK1/2 functional assay, M1; format: cell-based; details: for EC50 / M1 % Emax cf. ACh: CHO cells stably expressing human M1; for EC50: phospho-ERK1/2, read-out: pEC50 M1 (converted); for Emax: CHO, read-out: M1 % Emax cf. ACh, CHO cells stably expressing human M1; for Emax / M1 % Emax cf. ACh: Emax relative to ACh
T3 construct: expressed in transfected cells
T3 sequence (P11229 1-460): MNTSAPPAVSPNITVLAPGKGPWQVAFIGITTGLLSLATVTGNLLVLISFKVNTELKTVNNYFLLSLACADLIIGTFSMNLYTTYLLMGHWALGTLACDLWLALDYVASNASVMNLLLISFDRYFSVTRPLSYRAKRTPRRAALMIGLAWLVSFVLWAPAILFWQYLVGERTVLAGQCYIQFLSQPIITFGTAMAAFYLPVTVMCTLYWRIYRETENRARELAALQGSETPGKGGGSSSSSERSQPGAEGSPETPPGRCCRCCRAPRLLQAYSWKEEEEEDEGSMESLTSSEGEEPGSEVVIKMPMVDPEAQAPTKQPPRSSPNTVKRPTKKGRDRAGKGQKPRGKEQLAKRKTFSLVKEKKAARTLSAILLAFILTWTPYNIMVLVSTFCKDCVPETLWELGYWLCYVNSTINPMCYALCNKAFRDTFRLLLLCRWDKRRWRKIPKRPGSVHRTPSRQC
Experimental: as §1, §2

[5] = biological target: human muscarinic M3 receptor (Homo sapiens, UniProt P20309); test: Alphascreen Surefire phospho-ERK1/2 functional assay, M3; details: for Emax: CHO, read-out: M3 % Emax cf. ACh, CHO cells stably expressing human M3
Chain of human muscarinic M3 receptor (P20309 whole entry): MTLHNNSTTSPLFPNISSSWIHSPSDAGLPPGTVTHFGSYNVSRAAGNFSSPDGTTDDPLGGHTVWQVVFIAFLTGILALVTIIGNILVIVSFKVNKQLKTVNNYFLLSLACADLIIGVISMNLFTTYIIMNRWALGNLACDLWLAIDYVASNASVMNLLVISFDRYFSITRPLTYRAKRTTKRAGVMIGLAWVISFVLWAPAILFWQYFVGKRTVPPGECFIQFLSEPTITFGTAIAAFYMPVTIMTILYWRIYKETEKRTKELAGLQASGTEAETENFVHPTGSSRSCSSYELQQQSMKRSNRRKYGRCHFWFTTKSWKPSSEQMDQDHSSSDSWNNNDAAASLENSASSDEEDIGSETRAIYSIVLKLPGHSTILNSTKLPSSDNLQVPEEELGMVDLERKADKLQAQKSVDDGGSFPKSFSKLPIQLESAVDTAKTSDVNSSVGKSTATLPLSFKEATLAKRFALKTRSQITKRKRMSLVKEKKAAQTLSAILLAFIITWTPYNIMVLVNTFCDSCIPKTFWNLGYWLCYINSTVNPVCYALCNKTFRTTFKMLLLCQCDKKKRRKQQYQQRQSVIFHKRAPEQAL
Experimental: as §1, §2

Structure (SMILES) | EC50 [2] [nM] | Emax [2] [%] | Emax [3] [%] | EC50 [3] [nM] | EC50 [4] [nM] | Emax [4] [%] | EC50 [5] [nM] | Emax ([5]; Emax relative to ACh) [%] | M2 % Emax cf. ACh [3] | M1 % Emax cf. ACh [4] | M3 % Emax cf. ACh ([5]; CHO cells stably expressing human M3, Emax relative to ACh) | M4 % Emax cf. ACh [2] | d-amphetamine induced hyperactivity [1]
CCCCCCOc1nsnc1C1=CCCN(C)C1 [xanomeline] | – | – | – | – | – | – | – | – | – | – | – | – | significantly reduce
CCOC(=O)N1CC2(CC(N3CCC4(CC3)OC(=O)N(CC)C4CC)C2)C1 (racemic) [2-2 racemic] | 200 | 69 | 71 | > 20000 | 2000 | 74 | > 20000 | 27 | – | – | – | – | –
CCOC(=O)N1CCC2(CC(N3CCC4(CC3)OC(=O)N(CC(C)C)C4(C)C)C2)C1 (single isomer, unassigned) [4-38 Isomer 1] | 63.1 | 97 | – | > 20000 | 1000 | – | > 20000 | – | (7) % | (72) % | (3) % | – | –
CCOC(=O)N1CCC2(CC(N3CCC4(CC3)OC(=O)N(CCF)C4(C)C)C2)C1 (single isomer, unassigned) [4-40 Isomer 2] | 39.8 | 109 | 4 | > 20000 | 7940 | 37 | > 20000 | 6 | – | – | – | – | –
CCC1NC(=O)CC12CCN(C1CC3(CCN(C(=O)OC)C3)C1)CC2 (single isomer, unassigned) [3-4 Isomer 3] | 25.1 | – | – | > 20000 | 79.4 | – | > 20000 | 24 | (8) % | (101) % | – | (71) % | –
CCOC(=O)N1CCC2(CC(N3CCC4(CC3)CNC(=O)O4)C2)C1 (single isomer, unassigned) [4-3 Isomer 2] | 39.8 | – | 0 | > 20000 | 20 | – | > 20000 | 7 | – | (116) % | – | (78) % | –
CCOC(=O)N1CCC2(CC(N3CCC4(CC3)CC(=O)NC4CC)C2)C1 (single isomer, unassigned) [3-5 Isomer 2] | 3.16 | 108 | 16 | > 20000 | 25.1 | 96 | > 20000 | 10 | – | – | – | – | –
CCOC(=O)N1CCC2(CC(N3CCC4(CC3)OC(=O)NC4C)C2)C1 (single isomer, unassigned) [4-11 Isomer 2] | 79.4 | 102 | 7 | > 20000 | 158 | 114 | > 20000 | 7 | – | – | – | – | –

More lines, main results first:

EC50 [2] [nM] | Emax [2] [%] | Emax [3] [%] | EC50 [3] [nM] | EC50 [4] [nM] | Emax [4] [%] | EC50 [5] [nM] | Emax ([5]; Emax relative to ACh) [%] | M2 % Emax cf. ACh [3] | M1 % Emax cf. ACh [4] | M3 % Emax cf. ACh ([5]; CHO cells stably expressing human M3, Emax relative to ACh) | M4 % Emax cf. ACh [2] | Structure (SMILES) | d-amphetamine induced hyperactivity [1]
501 | 95 | 14 | > 20000 | 1000 | 56 | > 20000 | 24 | – | – | – | – | CCOC(=O)N1CC2(CC(N3CCC4(CC3)OC(=O)N(CC)C4(C)C)C2)C1 [Example 2-4, ethyl 6-(3-ethyl-4,4-dimethyl-2-oxo-1-oxa-3,8-diazaspiro[4.5]dec-8-yl)-2-azaspiro[3.3]heptane-2-carboxylate] | –
79.4 | 75 | 5 | > 20000 | > 20000 | 6 | > 20000 | 6 | – | – | – | – | CCOC(=O)N1CCC2(CC(N3CCC4(CC3)OC(=O)N(CC(F)(F)F)C4(C)C)C2)C1 (single isomer, unassigned) [4-43 Isomer 2] | –
7.94 | 91 | 4 | > 20000 | 200 | 63 | > 20000 | 1 | – | – | – | – | CCOC(=O)N1CC2(CCC(N3CCC4(CC3)OC(=O)N(CC)C4(C)C)C2)C1 (racemic) [8-4 racemic] | –
126 | 68 | 13 | > 20000 | 631 | 77 | > 20000 | 11 | – | – | – | – | CCN1NC(=O)CC12CCN(C1CC3(CCN(C(=O)OC)C3)C1)CC2 (single isomer, unassigned) [6-1 Isomer 2] | –
2 | 70 | 0 | > 20000 | 10 | 70 | > 20000 | 2 | – | – | – | – | CCOC(=O)N1CC2(CCC(N3CCC4(CC3)OC(=O)NC4CC)C2)C1 (mixture of isomers) [8-1 mixture of diastereomers] | –
63.1 | 103 | 10 | > 20000 | 3160 | 55 | > 20000 | 100 | – | – | – | – | CCOC(=O)N1CCC2(CC(N3CCC4(CC3)CC(=O)N(CC)N4CC)C2)C1 (single isomer, unassigned) [6-8 Isomer 2] | –
10 | 30 | 1 | > 20000 | 200 | 65 | > 20000 | 1 | – | – | – | – | CCOC(=O)N1CC2(CCC(N3CCC4(CC3)OC(=O)N(CC)C4CC)C2)C1 (mixture of isomers) [8-2 mixture of diastereomers] | –
> 20000 | 14 | 0 | > 20000 | 5.01 | 26 | > 20000 | 4 | – | – | – | – | CCOC(=O)N1CC2(CCC(N3CCC4(CC3)CNC(=O)C4)C2)C1 (racemic) [7-1 racemic] | –
